pKi: −log10 of the molar value. Where a SMILES comes first, the peptide text is derived from it. Where no end group is shown, it is not given here. The star is where a group is joined. pNA = O=[N+]([O-])c1ccc(N*)cc1; Cbz = O=C(OCc1ccccc1)*; Boc = CC(C)(C)OC(=O)*
How the values were obtained:
[1] = target: T1, interleukin 1β converting enzyme (ICE) (Homo sapiens, UniProt P29466); test: Inhibition of ICE hydrolysis of CBZ-Val-Ala-Asp-pNA; type: biochemical; settings: for pKi: substrate CBZ-Val-Ala-Asp-pNA
T1 construct: ICE activity was purified from THP-1 cell lysates by three chromatographic steps; endogenous in cells; host or cells: THP-1 (ATCC-TIB 202) human monocyte cell line; Lysate was purified over G25, Q-Sepharose and MonoQ, then captured on protein A agarose beads carrying anti-ICE antibody
T1 sequence (P29466 120-297 limits assumed): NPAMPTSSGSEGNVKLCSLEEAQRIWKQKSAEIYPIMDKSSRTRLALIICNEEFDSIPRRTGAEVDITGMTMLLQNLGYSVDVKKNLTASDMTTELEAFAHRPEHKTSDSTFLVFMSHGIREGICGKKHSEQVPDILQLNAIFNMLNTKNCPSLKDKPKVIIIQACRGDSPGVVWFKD
T1 sequence (P29466 317-404 limits assumed): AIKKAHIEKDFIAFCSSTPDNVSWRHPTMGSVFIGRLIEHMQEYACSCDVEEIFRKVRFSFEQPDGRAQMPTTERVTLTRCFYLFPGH
Description: (§1) Other procedures for purification and assaying ICE are disclosed in Black et al., FEBS Letters, 247, 386-390 (1989), and Thornberry et al., Nature, 356, 768-774 (1992). Cell Culture And Lysates.
(§2) Human monocyte cell line, THP-1 (ATCC-TIB 202) was grown in RPMI media 1640 (Gibco BRL Gaithersburg, Md. 20877) with 10% fetal bovine serum, harvested by centrifugation, washed twice in Dulbecco's PBS […] without Ca^++, and resuspended in 10 mM Tris-HCl pH 8 buffer containing 5 mM DTT (dithiothreitol), 1 mM EDTA (ethylene diamine tetraacetic acid), 1 mM PMSF (phenylmethyl sulfonylfluoride), 1 μg/ml pepstatin, and 1 μg/ml leupeptin at 1-3×10^8 cells per ml. Cells were frozen at -70° C. until use and then lysed by thawing. Lysates were cleared by centrifugation at 20,000× g for 1 hour followed by 120,000×g for 1 hour.
(§3) ICE activity was purified from THP-1 cell lysates by three chromatographic steps: (A) Thp-1 cell lysate (1.5L) was desalted by G25 column chromatography (Pharmacia LKB Biotechnology) (B) The protein fraction was then subjected to ion-exchange chromatography on Q-Sepharose Fast Flow (Pharmacia LKB Biotechnology) in buffer A (20 mM Tris pH 7.8 containing 5 mM EDTA, 1 mM PMSF, 1 μg/ml pepstatin, and 1 μg/ml leupeptin). ICE activity was eluted with a gradient of NaCl in buffer A. (C) The active fractions from B were desalted, concentrated and subjected to MonoQ (trademark) (Pharmacia LKB Biotechnology) column chromatography. ICE activity was then eluted in a NaCl gradient. Active ICE fractions from C were pooled and used to bind immunoaffinity beads containing covalently linked antibodies raised against the first […] N-terminal residues of ICE (NH2 -Asp-Pro-Ala-Met-Pro-Thr-Ser-Ser-Val-Lys-Leu-Cys(SEQ ID NO:2)-CONH2).
Immobilization of ICE to immunoaffinity beads was done following standard protocols. […]
The enzymatic reaction was monitored spectrophotometrically at […]. The increase in absorbance at this wave length resulted from the release of pNA chromophore after hydrolysis by ICE of the peptidic-pNA substrate. […]

[2] = target: T1, interleukin 1β converting enzyme (ICE); test: Spectrophotometric hydrolysis of pNA substrates by immobilized ICE (release of pNA at 405 nM); type: biochemical; settings: 25° C.; for Increase In Absorbence Rates (mOD/min), first value: first of two rate values printed; for Increase In Absorbence Rates (mOD/min), first value / Increase In Absorbence Rates (mOD/min), second value: pH 7, 405 nM, condition that separates the two values not given; for Vmax (Rates) mOD/min: pNA substrate 0.01 to 1.5 mM, pH 7; for Increase In Absorbence Rates (mOD/min), second value: second of two rate values
Description: as §1, §2, §3
Immobilization of ICE to immunoaffinity beads was done following standard protocols. Briefly, IgG fractions were covalently linked to protein A beads as described by the manufacturers (Antibody Orientation Kit Protein A Agarose supplied by Affinica (trademark) (Product manufactured by Schleicher and Schuell)). Protein A beads were pelleted by centrifugation and washed with 5 times their volume with Affinica (trademark) supplied "binding buffer". IgG, appropriately diluted in "binding buffer," was then bound to the beads. The beads were then washed and the bound IgG was covalently linked with dimethyl suberimidate. After the reaction was stopped with the "quenching buffer" supplied by Affinica (trademark), the immunoaffinity beads were washed and stored in PBS buffer containing 0.02% NAN3. To bind the immunoaffinity beads with MonoQ purified ICE preparations, the beads were washed in 10 mM Tris HCL buffer pH 7.8 containing 5 mM DDT, 1 mM EDTA-NA, 1 ug/ml peptstatin, 1 ug/ml leupeptin and 10% glycerol ("washing buffer"). After the wash, the beads were mixed with ICE in the presence of 10% DMSO final concentration. The suspension was rotated slowly for 1 hour at room temperature. Subsequently, the beads were thoroughly washed with the "washing buffer" before they were used and resuspended in an equal volume of this buffer in the enzymatic assay.
The enzymatic reaction was carried out at 25° C. in 96 microtiter wells (100 μl final volume) with active enzyme immobilized to anti-ICE antibodies covalently linked to protein A beads as described above. The incubation mixtures for the enzymatic assays contained 0.01 to 1.5 mM of the pNA substrates and was made up in 8.35 mM MES, 4.17 mM Tris, 4.17 mM acetic acid, […] DMSO, 0.8 mM EDTA and 4.17 mM DTT (final concentrations)adjusted to a final pH of 7.
The enzymatic reaction was monitored spectrophotometrically at […]. The increase in absorbance at this wave length resulted from the release of pNA chromophore after hydrolysis by ICE of the peptidic-pNA substrate. The release of the chormophore was linear with reaction time and the rates observed were proportional to ICE and substrate concentration. […]

Molecule: Ac-YVHDA-NH2 [p48, Ac-Tyr-Val-His-Asp-Ala(SEQ ID NO:4)-NH2]
- type of inhibition ([1]; hydrolysis of CBZ-Val-Ala-Asp-pNA, affecting Km but not Vmax): competitive inhibitors
- pKi [1]: 2.80

Molecule: CC(=O)N[C@H](C(=O)N[C@@H](C)C(=O)N[C@@H](CC(=O)O)C(=O)Nc1ccc([N+](=O)[O-])cc1)C(C)C [Example 5, AcValAlaAsp-p-nitroanilide] (Ac-Val-Ala-Asp-pNA)
- Increase In Absorbence Rates (mOD/min), first value [2]: 0.15 mOD/min
- Vmax (Rates) mOD/min [2]: 0.25 mOD/min
- Increase In Absorbence Rates (mOD/min), second value [2]: 0.08 mOD/min

Molecule: CC(=O)N[C@@H](Cc1ccc(O)cc1)C(=O)N[C@H](C(=O)N[C@@H](C)C(=O)N[C@@H](CC(=O)O)C(=O)Nc1ccc([N+](=O)[O-])cc1)C(C)C [Example 1, Ac-TyrValAlaAsp (SEQ ID NO:1)-p-nitroanilide]
- Increase In Absorbence Rates (mOD/min), first value [2]: 0.21 mOD/min
- Vmax (Rates) mOD/min [2]: 0.27 mOD/min
- Increase In Absorbence Rates (mOD/min), second value [2]: 0.17 mOD/min

Molecule: H-NEAYVHDAPVRSLN [p70, H-Asn-Glu-Ala-Tyr-Val-His-Asp-Ala-Pro-Val-Arg-Ser-Leu-Asn]
- pKi [1]: 3.34

Molecule: CC(C)[C@H](NC(=O)OC(C)(C)C)C(=O)N[C@@H](C)C(=O)N[C@@H](CC(=O)O)C(=O)Nc1ccc([N+](=O)[O-])cc1 [Example 4, t-BOCValAlaAsp-p-nitroanilide] (Boc-Val-Ala-Asp-pNA)
- Increase In Absorbence Rates (mOD/min), first value [2]: 0.17 mOD/min
- Vmax (Rates) mOD/min [2]: 0.24 mOD/min
- Increase In Absorbence Rates (mOD/min), second value [2]: 0.10 mOD/min

Molecule: CC(C)[C@H](NC(=O)OCc1ccccc1)C(=O)N[C@@H](C)C(=O)N[C@@H](CC(=O)O)C(=O)Nc1ccc([N+](=O)[O-])cc1 [Example 6, CBZValAlaAsp-p-nitroanilide] (Cbz-Val-Ala-Asp-pNA)
- Increase In Absorbence Rates (mOD/min), first value [2]: 0.18 mOD/min
- Vmax (Rates) mOD/min [2]: 0.21 mOD/min
- Increase In Absorbence Rates (mOD/min), second value [2]: 0.16 mOD/min

— patent US5498695A, “Paranitroaniline peptides” (Pfizer Inc., priority 1994, dated 1996)
